Measured values: patent publication US20230339981A1, “KRAS G12D MODULATING COMPOUNDS” (priority 2022, published 2023)

Tests used:
[1] = test system: GP2D (KRAS G12D) cells; experiment: 2D cell viability assay (CellTiter-Glo); assay type: cell-based; settings: GP2d, 96 h, 4 days
Summary of the method: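 Viability was read by CellTiter-Glo after 4 days at 37 °C of 2D culture of KRAS G12D GP2D cells (1000/well, RPMI, 10% FBS) on pre-spotted threefold compound dilutions. EC50 was fitted with a sigmoidal dose-response model as the point of half-maximal luminescence loss.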

[2] = target: GDP-loaded KRAS G12D (Homo sapiens (Human), UniProt P01116, G12D); experiment: KRAS G12D (GDP) biochemical assay (TR-FRET probe displacement); assay type: binding; settings: 2 hours
GDP-loaded KRAS G12D, sequence (P01116-2 other isoform, or with tags, fused parts or gaps G12D): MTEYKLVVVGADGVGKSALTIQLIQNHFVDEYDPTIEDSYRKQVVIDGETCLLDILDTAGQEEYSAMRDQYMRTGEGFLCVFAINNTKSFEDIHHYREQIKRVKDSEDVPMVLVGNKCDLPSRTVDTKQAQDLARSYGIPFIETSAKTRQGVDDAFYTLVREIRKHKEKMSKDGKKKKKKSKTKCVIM
Summary of the method: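 TR-FRET probe displacement: 1:3 DMSO serial dilutions pre-incubated 30 min with GDP-bound KRAS G12D, followed by Eu-streptavidin/probe for 2 h at room temperature (Hepes pH 7.4, NaCl, MgCl2, Tween-20 buffer). IC50 defined as concentration halving TR-FRET ratio, from sigmoidal dose-response fit.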

Row | Structure (SMILES) | EC50 [1] [nM] | IC50 [2] [nM]
1 | C#Cc1c(F)ccc2cccc(-c3nc4c5c(nc(OC[C@@]67CCCN6C[C@H](F)C7)nc5c3F)N3C[C@H]5CC[C@H](N5)[C@@H]3[C@@H](CC)C4)c12 [Example 91, (5S,5aS,6S,9R)-5-ethyl-2-(8-ethynyl-7-fluoronaphthalen-1-yl)-1-fluoro-12-(((2R,7aS)-2-fluorotetrahydro-1H-pyrrolizin-7a(5H)-yl)methoxy)-4,5,5a,6,7,8,9,10-octahydro-3,10a,11,13,14-pentaaza-6,9-methanonaphtho[1,8-ab]heptalene] | 1000 | 100
2 | C#Cc1c(F)ccc2cccc(-c3nc4c5c(nc(OC[C@@]67CCCN6C[C@H](F)C7)nc5c3F)N3C[C@H]5CC[C@H](N5)[C@H]3CC4(F)F)c12 [Example 98, (5aR,6S,9R)-2-(8-ethynyl-7-fluoronaphthalen-1-yl)-1,4,4-trifluoro-12-(((2R,7aS)-2-fluorotetrahydro-1H-pyrrolizin-7a(5H)-yl)methoxy)-4,5,5a,6,7,8,9,10-octahydro-3,10a,11,13,14-pentaaza-6,9-methanonaphtho[1,8-ab]heptalene] | 124 | 12.6
3 | C#Cc1c(F)ccc2cccc(-c3nc4c5c(nc(OCC6(CN7CCC[Si](C)(C)CC7)CC6)nc5c3F)N3C[C@H]5CC[C@H](N5)[C@@H]3[C@@H](C)C4)c12 [Example 100, (5S,5aS,6S,9R)-12-((1-((4,4-dimethyl-1,4-azasilepan-1-yl)methyl)cyclopropyl)methoxy)-2-(8-ethynyl-7-fluoronanhthalen-1-yl)-1-fluoro-5-methyl-4,5,5a,6,7,8,9,10-octahydro-3,10a,11,13,14-pentaaza-6,9-methanonaphtho[1,8-ab]heptalene] | 373 | 31.8
4 | C#Cc1c(F)ccc2cccc(-c3nc4c5c(nc(OCC6(CN7CCN(CC(F)(F)F)CC7)CC6)nc5c3F)N3C[C@H]5CC[C@H](N5)[C@@H]3[C@@H](C)C4)c12 [Example 101, (5S,5aS,6S,9R)-2-(8-ethynyl-7-fluoronaphthalen-1-yl)-1-fluoro-5-methyl-12-((1-((4-(2,2,2-trifluoroethyl)piperazin-1-yl)methyl)cyclopropyl)methoxy)-4,5,5a,6,7,8,9,10-octahydro-3,10a,11,13,14-pentaaza-6,9-methanonaphtho[1,8-ab]heptalene] | 175 | 12.7
5 | Oc1cc(-c2nc3c4c(nc(OCC5(CN6CC[C@H](OC(F)(F)F)C6)CC5)nc4c2F)N2C[C@H]4CC[C@H](N4)[C@H]2CC3)c2c(OC(F)(F)F)c(F)ccc2c1 [Example 103, 6-fluoro-4-((5aR,6S,9R)-1-fluoro-12-((1-(((S)-3-(trifluoromethoxy)pyrrolidin-1-yl)methyl)cyclopropyl)methoxy)-4,5,5a,6,7,8,9,10-octahydro-3,10a,11,13,14-pentaaza-6,9-methanonaphtho[1,8-ab]heptalen-2-yl)-5-(trifluoromethoxy)naphthalen-2-ol] | 62.6 | 5.3
6 | C#Cc1c(F)ccc2cccc(-c3nc4c5c(nc(OC[C@@]67CCCN6[C@H](COc6cccc(S(F)(F)(F)(F)F)c6)CC7)nc5c3F)N3C[C@H]5CC[C@H](N5)[C@@H]3[C@@H](C)C4)c12 [Example 105, (5S,5aS,6S,9R)-2-(8-ethynyl-7-fluoronaphthalen-1-yl)-1-fluoro-5-methyl-12-(((3S,7aS)-3-((3-(pentafluoro-λ^6-sulfaneyl)phenoxy)methyl)tetrahydro-1H-pyrrolizin-7a(5H)-yl)methoxy)-4,5,5a,6,7,8,9,10-octahydro-3,10a,11,13,14-pentaaza-6,9-methanonaphtho[1,8-ab]heptalene] | 435 | 5.3
7 | C#Cc1c(F)ccc2cccc(-c3nc4c5c(nc(OCC6(CN7CCC(OC(F)(F)F)CC7)CC6)nc5c3F)N3C[C@H]5CC[C@H](N5)[C@H]3CC4)c12 [Example 107, (5aR,6S,9R)-2-(8-ethynyl-7-fluoronaphthalen-1-yl)-1-fluoro-12-((1-((4-(trifluoromethoxy)piperidin-1-yl)methyl)cyclopropyl)methoxy)-4,5,5a,6,7,8,9,10-octahydro-3,10a,11,13,14-pentaaza-6,9-methanonaphtho[1,8-ab]heptalene] | 460 | 7.2
8 | C#Cc1c(F)ccc2cccc(-c3nc4c5c(nc(OC[C@@]67CCCN6[C@H](COc6cccc(S(F)(F)(F)(F)F)c6)CC7)nc5c3F)N3C[C@H]5CC[C@H](N5)[C@H]3CC4)c12 [Example 108, (5aR,6S,9R)-2-(8-ethynyl-7-fluoronaphthalen-1-yl)-1-fluoro-12-(((3S,7aS)-3-((3-(pentafluoro-λ^6-sulfaneyl)phenoxy)methyl)tetrahydro-1H-pyrrolizin-7a(5H)-yl)methoxy)-4,5,5a,6,7,8,9,10-octahydro-3,10a,11,13,14-pentaaza-6,9-methanonaphtho[1,8-ab]heptalene] | 450 | 1.5
9 | C#Cc1c(F)ccc2cccc(-c3nc4c5c(nc(OC[C@]67CCCN6CC(OC(C(F)(F)F)(C(F)(F)F)C(F)(F)F)C7)nc5c3F)N3C[C@H]5CC[C@H](N5)[C@H]3CC4)c12 (stereo partly drawn) [Example 114, (5aR,6S,9R)-2-(8-ethynyl-7-fluoronaphthalen-1-yl)-1-fluoro-12-((trans-2-((1,1,1,3,3,3-hexafluoro-2-(trifluoromethyl)propan-2-yl)oxy)tetrahydro-1H-pyrrolizin-7a(5H)-yl)methoxy)-4,5,5a,6,7,8,9,1O-octahydro-3,10a,11,13,14-pentaaza-6,9-methanonaphtho[1,8-ab]heptalene] | 1000 | 125
10 | C#Cc1c(F)ccc2cccc(-c3nc4c5c(nc(OC[C@@]67CCCN6[C@H](COC(C6CC6)C(F)(F)F)CC7)nc5c3F)N3C[C@H]5CC[C@H](N5)[C@H]3CCC4)c12 (stereo partly drawn) [Example 117, (6aR,7S,10R)-13-(((3S,7aS)-3-((1-cyclopropyl-2,2,2-trifluoroethoxy)methyl)tetrahydro-1H-pyrrolizin-7a(5H)-yl)methoxy)-2-(8-ethynyl-7-fluoronaphthalen-1-yl)-1-fluoro-5,6,6a,7,8,9,10,11-octahydro-4H-3,11a,12,14,15-pentaaza-7,10-methanocyclohepta[4,5]cycloocta[1,2,3-de]naphthalene] | 8.5 | 0.1
11 | C#Cc1c(F)ccc2cccc(-c3nc4c5c(nc(OC[C@@]67CCCN6[C@H](COc6cccc(S(F)(F)(F)(F)F)c6)CC7)nc5c3F)N3C[C@H]5CC[C@H](N5)[C@H]3CCC4)c12 [Example 118, (6aR,7S,10R)-2-(8-ethynyl-7-fluoronaphthalen-1-yl)-1-fluoro-13-(((3S,7aS)-3-((3-(pentafluoro-λ^6-sulfaneyl)phenoxy)methyl)tetrahydro-1H-pyrrolizin-7a(5H)-yl)methoxy)-5,6,6a,7,8,9,10,11-octahydro-4H-3,11a,12,14,15-pentaaza-7,10-methanocyclohepta[4,5]cycloocta[1,2,3-de]naphthalene] | 72.7 | 0.4
12 | Fc1ccc2cccc(-c3nc4c5c(nc(OCC6(CN7CCC(OC(F)(F)F)CC7)CC6)nc5c3F)N3C[C@H]5CC[C@H](N5)[C@H]3CC4)c2c1OC(F)(F)F [Example 120, (5aR,6S,9R)-1-fluoro-2-(7-fluoro-8-(trifluoromethoxy)naphthalen-1-yl)-12-((1-((4-(trifluoromethoxy)piperidin-1-yl)methyl)cyclopropyl)methoxy)-4,5,5a,6,7,8,9,10-octahydro-3,10a,11,13,14-pentaaza-6,9-methanonaphtho[1,8-ab]heptalene] | 1000 | 337
